In US20090253669A1, “Substituted Sulfonamide Compounds” (GRUENENTHAL GmbH, priority 2008, published 2009):

Tests used:
[1] = molecular target: T1, human B1R receptor (hB1R) (Homo sapiens, UniProt P46663); assay: FLIPR Ca2+ assay on hB1R-transfected CHO K1 cells, antagonistic action; type: cell-based; settings: CHO-K1, 10 μM test substance; agonist Lys-Des-Arg9-bradykinin 0.5 nM; % of maximum achievable inhibition; read-out: hB1R [10 μM] % inhibition
T1 construct: host or cells: CHO K1 cells
T1 sequence (P46663 1-353): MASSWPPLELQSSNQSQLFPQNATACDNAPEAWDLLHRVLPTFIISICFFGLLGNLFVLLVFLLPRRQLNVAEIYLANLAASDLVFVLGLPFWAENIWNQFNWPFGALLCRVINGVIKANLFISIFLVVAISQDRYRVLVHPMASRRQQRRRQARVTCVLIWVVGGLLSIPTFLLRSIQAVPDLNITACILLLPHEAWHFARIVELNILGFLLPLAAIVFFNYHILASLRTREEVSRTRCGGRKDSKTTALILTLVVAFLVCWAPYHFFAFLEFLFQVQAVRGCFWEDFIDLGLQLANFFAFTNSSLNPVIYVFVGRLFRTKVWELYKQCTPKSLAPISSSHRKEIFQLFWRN

[2] = molecular target: T2, B1R receptor of the rat (rB1R) (Rattus norvegicus, UniProt P97583); assay: FLIPR Ca2+ assay on rB1R-transfected CHO K1 cells, antagonistic action; type: cell-based; settings: CHO-K1, 10 μM test substance; agonist Des-Arg9-bradykinin 100 nM; % of maximum achievable inhibition; read-out: rB1R [10 μM] % inhibition
T2 construct: host or cells: CHO K1 cells
T2 sequence (P97583 1-337): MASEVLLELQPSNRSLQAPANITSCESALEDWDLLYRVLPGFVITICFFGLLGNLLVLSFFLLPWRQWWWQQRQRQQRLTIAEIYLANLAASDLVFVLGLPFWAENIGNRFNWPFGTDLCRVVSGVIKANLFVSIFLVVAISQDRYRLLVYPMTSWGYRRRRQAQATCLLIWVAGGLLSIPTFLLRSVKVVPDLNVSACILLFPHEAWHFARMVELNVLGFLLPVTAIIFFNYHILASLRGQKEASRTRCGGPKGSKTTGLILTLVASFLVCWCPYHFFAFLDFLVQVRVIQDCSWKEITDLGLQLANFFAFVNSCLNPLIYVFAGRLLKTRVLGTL

Row | Structure (SMILES) | inhibition at 10 µM [1] | inhibition at 10 µM [2]
1 | Cc1cc(S(=O)(=O)N2CCCCC2CCC(=O)N2CCC(c3ccccc3)(N(C)C)CC2)c(C)cc1Cl (centres unmarked) [Compound 123, 3-(1-(4-chloro-2,5-dimethylphenylsulfonyl)piperidin-2-yl)-1-(4-(dimethylamino)-4-phenylpiperidin-1-yl)propan-1-one] | 103% | 60%
2 | Cc1cc(S(=O)(=O)N2CCCCC2CCC(=O)N(C)CCCC2CCC(Cc3ccccc3)(N3CCCC3)CC2)c(C)cc1Cl (centres unmarked) [Compound 124, N-(3-(4-benzyl-4-(pyrrolidin-1-yl)cyclohexyl)propyl)-3-(1-(4-chloro-2,5-dimethylphenylsulfonyl)piperidin-2-yl)-N-methylpropanamide] | 98% | 58%
3 | CN(CCC1CCC(c2ccccc2)(N(C)C)CC1)C(=O)CC1CCCCN1S(=O)(=O)c1cccc(C(F)(F)F)c1 (centres unmarked) [Compound 125, N-(2-(4-(dimethylamino)-4-phenylcyclohexyl)ethyl)-N-methyl-2-(1-(3-(trifluoromethyl)phenylsulfonyl)piperidin-2-yl)acetamide] | 98% | 56%
4 | CN1CCN(C2(c3ccc(F)cc3)CCN(C(=O)COCC3CCc4ccccc4N3S(=O)(=O)c3ccc(Cl)c(Cl)c3)CC2)CC1 (centres unmarked) [Compound 126, 2-((1-(3,4-dichlorophenylsulfonyl)-1,2,3,4-tetrahydroquinolin-2-yl)methoxy)-1-(4-(4-fluorophenyl)-4-(4-methylpiperazin-1-yl)piperidin-1-yl)ethanone] | 87% | 55%
5 | CN(CC1CCC(Cc2ccccc2)(N2CCCC2)CC1)C(=O)COCC1CCc2ccccc2N1S(=O)(=O)c1ccc(Cl)c(Cl)c1 (centres unmarked) [Compound 127, N-((4-benzyl-4-(pyrrolidin-1-yl)cyclohexyl)methyl)-2-((1-(3,4-dichlorophenylsulfonyl)-1,2,3,4-tetrahydroquinolin-2-yl)methoxy)-N-methylacetamide] | 90% | 54%
6 | CN(CCCC1CCC(c2ccccc2)(N2CCCC2)CC1)C(=O)CC(NS(=O)(=O)c1ccc2ccccc2c1)c1ccccc1 (centres unmarked) [Compound 128, N-methyl-3-(naphthalene-2-sulfonamido)-3-phenyl-N-(3-(4-phenyl-4-(pyrrolidin-1-yl)cyclohexyl)propyl)propanamide] | 98% | 53%
7 | Cc1cc(S(=O)(=O)N2CCCCC2CCC(=O)N(C)CC2CCC(Cc3ccccc3)(N3CCCC3)CC2)c(C)cc1Cl (centres unmarked) [Compound 129, N-((4-benzyl-4-(pyrrolidin-1-yl)cyclohexyl)methyl)-3-(1-(4-chloro-2,5-dimethylphenylsulfonyl)piperidin-2-yl)-N-methylpropanamide] | 104% | 52%
8 | Cc1cc(S(=O)(=O)N2CCCCC2CCC(=O)N2CCC(Cc3ccccc3)(N3CCN(C)CC3)CC2)c(C)cc1Cl (centres unmarked) [Compound 130, 1-(4-benzyl-4-(4-methylpiperazin-1-yl)piperidin-1-yl)-3-(1-(4-chloro-2,5-dimethylphenylsulfonyl)piperidin-2-yl)propan-1-one] | 102% | 49%
9 | Cc1cc(S(=O)(=O)N2CCCCC2CCC(=O)N(C)CCC2CCC(CCc3ccccc3)(N3CCCC3)CC2)c(C)cc1Cl (centres unmarked) [Compound 131, 3-(1-(4-chloro-2,5-dimethylphenylsulfonyl)piperidin-2-yl)-N-methyl-N-(2-(4-phenethyl-4-(pyrrolidin-1-yl)cyclohexyl)ethyl)propanamide] | 99% | 47%
10 | Cc1cc(S(=O)(=O)N2CCCCC2CCC(=O)N(C)CCC2CCC(CCc3ccccc3)(N(C)C)CC2)c(C)cc1Cl (centres unmarked) [Compound 132, 3-(1-(4-chloro-2,5-dimethylphenylsulfonyl)piperidin-2-yl)-N-(2-(4-(dimethylamino)-4-phenethylcyclohexyl)ethyl)-N-methylpropanamide] | 103% | 43%
